Measured values from patent US20060100155A1, “Method for the therapeutic management of endometriosis” (priority 1999, published 2006).
Non-standard residues stand in square brackets, D forms with d. Residues, ends and D or L forms follow the SMILES beside them. dPhe(4-Cl) = N[C@H](Cc1ccc(Cl)cc1)C(=O)O; d2Nal = N[C@H](Cc1ccc2ccccc2c1)C(=O)O; dCit = NC(=O)NCCC[C@@H](N)C(=O)O; d3Pal = N[C@H](Cc1cccnc1)C(=O)O

System: patients with confirmed endometriosis
Assay: Weekly s.c. administration of 3 mg LHRH antagonist for 8 weeks to patients with confirmed endometriosis
Type: in vivo, human
Settings: for hot flushes or other (estradiol) withdrawal symptoms / proliferation of the endometrium (histological biopsies): 3 mg weekly for 8 weeks; for proliferation of the endometrium (histological biopsies): at the end of treatment
Method: The weekly administration of an adequate dose of an LHRH antagonist, e.g. 3 mg Cetrotide® s.c./per week over a period of eight weeks leads to a controlled suppression of estrogen secretion so that serum concentrations between about 35 pg/ml and about 80 pg/ml, preferably between about 45-75 pg/ml, more preferably between about 50-75 pg/ml are obtained. […] Also the development of osteoporosis can be avoided.

Structure (SMILES): CC(=O)N[C@H](Cc1ccc2ccccc2c1)C(=O)N[C@H](Cc1ccc(Cl)cc1)C(=O)N[C@H](Cc1cccnc1)C(=O)N[C@@H](CO)C(=O)N[C@@H](Cc1ccc(O)cc1)C(=O)N[C@H](CCCNC(N)=O)C(=O)N[C@@H](CC(C)C)C(=O)N[C@@H](CCCNC(=N)N)C(=O)N1CCC[C@H]1C(=O)N[C@H](C)C(N)=O [Cetrorelix acetate] (Ac-[d2Nal][dPhe(4-Cl)][d3Pal]SY[dCit]LRP[dA]-NH2)
- ovarian cyst formation (3 mg s.c. weekly for 8 weeks): No ovarian cyst formation occurred
- progress of the disease confirmed by 2nd look laparascopy (3 mg s.c. weekly for 8 weeks): without any progress of the disease
- hot flushes or other (estradiol) withdrawal symptoms: avoiding any hot flushes or other withdrawal symptoms
- proliferation of the endometrium (histological biopsies): no proliferation of the endometrium
- proliferation of the endometrium (histological biopsies) (listed as Cetrorelix): without proliferation of the endometrium
- hot flushes or other (estradiol) withdrawal symptoms (listed as Cetrorelix): without any signs of estradiol withdrawal symptoms
